# Measured values reported in patent US12264173B2 (GILEAD SCIENCES, INC., priority 2020, dated 2025).
# Where two headings read alike, the source gives them in different places.
# How the values were obtained:
# Type in all cases: cell-based
# RSV strain A2 = experiment: microbe, parasite or virus in culture; settings: Table 3, HEp-2 cells, RSV A2, 4 days, read-out: RSV HEp-2 EC50
# Procedure, shortened: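 Cytopathic-effect protection assay: HEp-2 cells (50,000/mL) infected with pre-titered RSV A2 onto 3-fold serial compound dilutions, incubated 4 days at 37° C. Cell viability read by CellTiter-Glo luminescence; percent inhibition derived against 0% and 100% virus-inhibition controls.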
# HCV Rep 1B = HCV Rep 1B EC50 (replicon luciferase)
# Protocol: (§1) Compounds were serially diluted in ten steps of 1:3 dilutions in 384-well plates. All serial dilutions were performed in four replicates per compound within the same 384-well plate. […] To each well of a black polystyrene 384-well plate (Greiner Bio-one, Monroe, NC), 90 μL of cell culture medium (without Geneticin) containing 2000 suspended HCV replicon cells was added with a Biotek μFlow workstation. For compound transfer into cell culture plates, 0.4 μL of compound solution from the compound serial dilution plate was transferred to the cell culture plate on a Biomek FX workstation. The DMSO concentration in the final assay wells was 0.44%. The plates were incubated for 3 days at 37° C. with 5% CO2 and 85% humidity. The HCV replicon assay was a multiplex assay, able to assess both cytotoxicity and antireplicon activity from the same well. The CC50 assay was performed first. The media in the 384-well cell culture plate was aspirated, and the wells were washed four times with 100 μL of PBS each, using a Biotek ELX405 plate washer. A volume of 50 μL of a solution containing 400 nM calcein AM (Anaspec, Fremont, CA) in 1×PBS was added to each well of the plate with a Biotek μFlow workstation. The plate was incubated for 30 min at room temperature before the fluorescence signal (excitation 490 nm, emission 520 nm) was measured with a Perkin-Elmer Envision plate reader. The EC50 assay was performed in the same wells as the CC50 assay. The calcein-PBS solution in the 384-well cell culture plate was aspirated with a Biotek ELX405 plate washer. A volume of 20 μL of Dual-Glo luciferase buffer (Promega, Madison, WI) was added to each well of the plate with a Biotek μFlow Workstation. The plate was incubated for 10 min at room temperature. A volume of 20 μL of a solution containing a 1:100 mixture of Dual-Glo Stop & Glo substrate (Promega, Madison, WI) and Dual-Glo Stop & Glo buffer (Promega, Madison, WI) was added to each well of the plate with a Biotek μFlow Workstation. The plate was then incubated at room temperature for 10 min before the luminescence signal was measured with a Perkin-Elmer Envision Plate Reader.
# HCV Rep 2A = HCV Rep 2A EC50 (replicon luciferase)
# Protocol: as §1
# RSV A2 = experiment: RSV NHBE EC50 (RSV A2 antiviral assay in NHBE cells); settings: read-out: RSV NHBE EC50
# Procedure, shortened: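 NHBE cells (7,500/well, passage ≤6) given 3-fold serially diluted compound (0.05% DMSO final), then infected with RSV A2 at 1×10^4.5 tissue culture infectious doses/mL. After 4 days at 37 °C, viability measured by CellTiter-Glo luminescence at 25 °C.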
# HRV16 = HRV16 HeLa EC50 (cytopathic effect in H1-HeLa cells); settings: read-out: HRV16 HeLa EC50
# Procedure, shortened: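 H1-HeLa cells seeded one day before, given 3-fold serial compound dilutions in triplicate just prior to infection with pre-titrated virus. Incubated 96 h at 33 °C/5% CO2; protection from cytopathic effect read as viability by CellTiter-Glo luminescence, normalised to infected untreated (0%) and uninfected (100%) controls.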
# DENV2 replicon = experiment: DENV-2 Huh-7 Rep EC50 (replicon luminescence)
# Procedure, shortened: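 Huh-7 cells carrying a DENV2 replicon, 5,000 cells/well, were incubated with dosed compounds for 48 h at 37° C. EnduRen live-cell substrate was added 1.5 h before luminescence reading. EC50 came from dose-response against DMSO-only wells.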
# [1] = tested on: Dengue serotype 2 New Guinea C (NGC) strain; experiment: DENV-2 Huh-7 EC50 (qPCR in Huh7 cells)
# Protocol: Huh7 (Human hepatocarcinoma 7) cells were maintained in 10% FCS-containing DMEM complete media. On the day of the assay, cells were trypsinized (0.1% Trypsin-EDTA), washed and infected for 2 hours in serum-free DMEM with Dengue serotype 2 New Guinea C (NGC) strain at MOI=0.1 with gentle agitation at 37° C. After 2 hours, cells were washed with serum-free media and suspended in 10% FCS-containing DMEM (Gibco, supplemented with sodium pyruvate, NEAA, Penicillin-Streptomycin). 10^5 cells were plated in triplicate in 96-well plates with compounds dispensed at graded doses (Hewlett-Packard D300 Digital Dispenser). All wells were normalized to 0.25% DMSO. At 48 hours, cells were washed with 1×PBS and all supernatants removed. Total RNA was extracted using RNEasy 96 plates (Qiagen) and used to generate first-strand cDNA using XLT cDNA 5× Supermix (QuantaBio). cDNA was used as a template in a Taqman qPCR duplex reaction specific to DENV2 viral and GAPDH gene expression. EC50 values were determined using Prism Graphpad software, with normalization to a positive control and no compound negative control wells.
# [2] = tested on: Dengue 2, New Guinea strain (NGC); experiment: DENV moDC EC50 (qPCR in human monocyte-derived dendritic cells); settings: Dengue virus, Dendritic cell; Table 3; human moDCs, 48 hours
# Protocol: Human monocyte-derived dendritic cells (moDCs) were derived from CD14+ monocytes (AllCells) cultured in Human Mo-DC Differentiation medium containing GM-CSF and IL-4 (Miltenyi Biotec). On day 7, moDCs were harvested by mechanical disruption, washed and suspended in serum-free RPMI. moDCs were infected with Vero-derived Dengue 2, New Guinea strain (NGC) at a MOI=0.1 for two hours in serum-free RPMI with gentle agitation at 37° C. Cells were washed and resuspended in 10% serum-containing RPMI (Gibco, supplemented with sodium pyruvate, NEAA, Penicillin-Streptomycin). […] were plated in triplicate in 96-well plates with compounds dispensed at graded doses (Hewlett-Packard D300 Digital Dispenser). All wells were normalized to 0.25% DMSO. At 48 hours, cells were washed with 1×PBS and all supernatants removed. Total RNA was extracted using RNEasy 96 plates (Qiagen) and used to generate first-strand cDNA using XLT cDNA 5× Supermix (QuantaBio). cDNA was used as a template in a Taqman qPCR duplex reaction specific to DENV2 viral and GAPDH gene expression. EC50 values were determined using Prism Graphpad software, with normalization to a positive control and no compound negative control wells.
# [3] = Table 4, replicon cells, 3 days, read-out: HCV Rep 1B EC50
# [4] = Table 4, replicon cells, 3 days, read-out: HCV Rep 2A EC50
# [5] = Table 3, NHBE cells, RSV A2, 4 days
# [6] = human respiratory syncytial virus, NHBE, Table 5 comparative activity, 2',3'-OH vs -OC(O)iPr
# [7] = HeLa, Table 5 comparative activity, 2',3'-OH vs -OC(O)iPr
# [8] = Dengue virus, Huh-7, Table 5 comparative activity, 2',3'-OH vs -OC(O)iPr, read-out: DENV Huh7 EC50
# [9] = Table 3, Huh-7 DENV2 replicon cells, 48 hours, read-out: DENV-2 REP Huh7 EC50
# [10] = human respiratory syncytial virus, HEp-2, 96 h
# [11] = human respiratory syncytial virus, NHBE, 96 h, Table 3, NHBE cells, RSV A2, 4 days
structure (smiles),measurement,setting,value
"CC(C)C(=O)O[C@H]1[C@H](c2ccc3c(N)ncnn23)O[C@](C#N)(COP(=O)(N[C@@H](C)C(=O)OC2COC2)Oc2ccccc2)[C@H]1OC(=O)C(C)C (single isomer, unassigned) [Example 185]",EC50,RSV strain A2,26 nM
same,EC50,HCV Rep 1B; [3],217 nM
same,EC50,HCV Rep 2A; [4],730 nM
"CC(C)C(=O)OC1C(c2ccc3c(N)ncnn23)OC(C#N)(COP(=O)(NC(C)C(=O)OC2CCN(C)C2)Oc2ccccc2)C1OC(=O)C(C)C (single isomer, unassigned) [Example 234]",EC50,RSV strain A2,57 nM
same,EC50,RSV A2; [5],30 nM
same,EC50,HCV Rep 1B; [3],905 nM
same,EC50,HCV Rep 2A; [4],1820 nM
"CCOC(=O)[C@H](C)N[P@](=O)(OC[C@@]1(C#N)O[C@@H](c2ccc3c(N)ncnn23)[C@H](O)[C@@H]1O)Oc1ccccc1 [Example 29, Ethyl ((S)-(((2R,3S,4R,5S)-5-(4-aminopyrrolo[2,1-f][1,2,4]triazin-7-yl)-2-cyano-3,4-dihydroxytetrahydrofuran-2-yl)methoxy)(phenoxy)phosphoryl)-L-alaninate]",EC50,RSV A2; [6],932 nM
same,EC50,HRV16; [7],678 nM
same,EC50,"DENV2 replicon; Dengue virus, DENV2, Huh-7, read-out: DENV Rep EC50",36100 nM
same,EC50,[1]; [8],1880 nM
"COC(=O)[C@H](C)N[P@](=O)(OC[C@@]1(C#N)O[C@@H](c2ccc3c(N)ncnn23)[C@H](O)[C@@H]1O)Oc1ccccc1 [Example 52, methyl ((S)-(((2R,3S,4R,5S)-5-(4-aminopyrrolo[2,1-f][1,2,4]triazin-7-yl)-2-cyano-3,4-dihydroxytetrahydrofuran-2-yl)methoxy)(phenoxy)phosphoryl)-L-alaninate]",EC50,RSV A2; [6],252 nM
same,EC50,HRV16; [7],1250 nM
same,EC50,[1]; [8],5480 nM
same,EC50,"HCV Rep 1B; Hepatitis C virus, Table 5 comparative activity, 2',3'-OH vs -OC(O)iPr, read-out: HCV Rep1B EC50",3960 nM
same,EC50,"HCV Rep 2A; Hepatitis C virus, Table 5 comparative activity, 2',3'-OH vs -OC(O)iPr, read-out: HCV Rep2A EC50",7460 nM
CCC(=O)O[C@H]1[C@H](c2ccc3c(N)ncnn23)O[C@](C#N)(CO[P@](=O)(N[C@@H](C)C(=O)OCC2CC2)Oc2ccccc2)[C@H]1OC(=O)CC [Example 100],EC50,RSV strain A2,58 nM
same,EC50,RSV A2; [5],13 nM
same,EC50,"HRV16; Table 3, H1-HeLa cells, 96 h",147 nM
same,EC50,DENV2 replicon; [9],18800 nM
same,EC50,"[1]; Table 3, Huh7 cells, 48 hours, read-out: DENV-2 Huh7 EC50",1130 nM
"CCC(=O)O[C@H]1[C@H](c2ccc3c(N)ncnn23)O[C@](C#N)(COP(=O)(N[C@@H](C)C(=O)OCC2CCC2)N[C@@H](C)C(=O)OCC2CCC2)[C@H]1OC(=O)CC [Example 125, ((2R,3S,4R,5S)-5-(4-aminopyrrolo[2,1-f][1,2,4]triazin-7-yl)-2-cyano-3,4-dipropionatetetrahydrofuran-2-yl)methyl bis-cyclobutylmethyl L-alaninate phosphate]",EC50,RSV strain A2; [10],700 nM
same,EC50,RSV A2; [11],79 nM
same,EC50,"HRV16; 96 h, Table 3, H1-HeLa cells, 96 h",2030 nM
same,EC50,"DENV2 replicon; Dengue virus, DENV2, Huh-7, 48 h, read-out: DENV-2 REP Huh7 EC50, Table 3, Huh-7 DENV2 replicon cells, 48 hours",48700 nM
same,EC50,[2],20700 nM
"C/C(=N\c1ncnn2c([C@@H]3O[C@](C#N)(COP(=O)(N[C@@H](C)C(=O)OC4CCOCC4)Oc4ccccc4)[C@@H](OC(=O)C(C)C)[C@H]3OC(=O)C(C)C)ccc12)N(C)C (stereo partly drawn) [Example 219, (2R,3S,4S,5S)-2-cyano-5-(4-(((E)-1-(dimethylamino)ethylidene)amino)pyrrolo[2,1-f][1,2,4]triazin-7-yl)-2-((((((S)-1-oxo-1-((tetrahydro-2H-pyran-4-yl)oxy)propan-2-yl)amino)(phenoxy)phosphoryl)oxy)methyl) tetrahydrofuran-3,4-diyl bis(2-methylpropanoate)]",EC50,RSV strain A2,67 nM
same,EC50,RSV A2; [5],82 nM
same,EC50,"HRV16; Table 3, H1-HeLa cells, 96 h",356 nM
same,EC50,DENV2 replicon; [9],16400 nM
"COC(=O)[C@H](C)N[P@](=O)(OC[C@@]1(C#N)O[C@@H](c2ccc3c(/N=C/N4CCN(C)CC4)ncnn23)[C@H](OC(=O)C(C)C)[C@@H]1OC(=O)C(C)C)Oc1ccccc1 [Example 261, (2R,3S,4S,5S)-2-cyano-2-((((S)-(((S)-1-methoxy-1-oxopropan-2-yl)amino)(phenoxy)phosphoryl)oxy)methyl)-5-(4-(((E)-(4-methylpiperazin-1-yl)methylene)amino)pyrrolo[2,1-f][1,2,4]triazin-7-yl)tetrahydrofuran-3,4-diyl bis(2-methylpropanoate)]",EC50,RSV strain A2; [10],42 nM
same,EC50,RSV A2; [11],13 nM
same,EC50,"DENV2 replicon; Dengue virus, DENV2, Huh-7, 48 h, read-out: DENV-2 REP Huh7 EC50",2340 nM
same,EC50,"HCV Rep 1B; Hepatitis C virus, 72 h, Table 4, replicon cells, 3 days, read-out: HCV Rep 1B EC50",524 nM
same,EC50,"HCV Rep 2A; Hepatitis C virus, 72 h, Table 4, replicon cells, 3 days, read-out: HCV Rep 2A EC50",1220 nM
